Measured values from patent US20190269801A1 (CEDARS-SINAI MEDICAL CENTER, priority 2016, published 2019).
Read-outs that look alike come from different tables or passages of the source.

Legend:
Caki-1 cells = experiment: Apoptosis by caspase 3/7 luminescent assay and western blot in Caki-1 cells; type: cell-based, human; details: 24 hours of drug exposure, 8, 16, and 32 μM
Method: 10,000-15,000 cells/well are seeded in 96 white wall well plates in 100 microliter medium/per well for 24 h. […] 100 microliters of Caspase-Glo 3/7 assay is added and luminescence is then read. […] 5,000 cells/well are seeded in 96 white wall well plates in 100 microliter medium/per well for 24 h. […] 100 microliters of Caspase-Glo 3/7 assay is added and luminescence is then read.
(§1) Apoptosis was assessed by caspase 3/7 luminescent assay. Cleavage of apoptosis substrates was determined by western blotting. […] Formalin-fixed tumor, liver and kidney sections were stained with H&E and kidney sections were scored semiquantitativey.

ACHN tumors = details: equimolar doses i.p. 3 times a week
Method: (§2) Tumor size is measured using a formula (length×width^2)/2.
as §1

Renca tumors = details: equimolar doses i.p. 3 times a week
Method: as §2, §1

mouse kidneys [1] = experiment: Kidney histopathology in RCC tumor-bearing mice (H&E, semiquantitative score); details: i.p. 3 times a week for 4 weeks
Method: as §1

[2] = tested on: B-cell lymphoma cell lines Namalwa, Raji, CA46, Ramos, Daudi; experiment: Growth and viability of B-cell Burkitt's lymphoma cell lines, MTT, 72 h; type: cell-based, human; details: B-cell lymphoma cell lines, 72 h
Method: 5,000 cells/well renal cancer cells and 10,000 cells/well lymphoma cells are seeded in 96 well plates in 100 microliter medium/per well for 24 h. […] Renal cancer cells are fixed with 3.7% paraformaldehyde for 15 minutes and are stained with Crystal violet solution (0.5% in 25% methanol) for 30 minutes. After rinsing with water cell layers are dried and decolorized with Sorenson citrate with shaking for 20 minutes. […] Lymphoma cell growth was evaluated using MTT and cells are incubated for 4 hours.
(§3) Induction of apoptosis was assessed using a caspase 3/7 luminescent assay. Cleavage of apoptosis substrates and inhibition of c-myc was determined by western blotting, with images quantified by ImageJ after normalization with GAPDH. […] Formalin-fixed tumor and kidney sections were stained with hematoxylin and esosin and kidney sections scored using a semiquantitative scale designed to assess AKI-associated tubular injury (tubular epithelial cell loss, necrosis, tubular epithelial simplification, intratubular debris, and casts).

[3] = tested on: Namalwa and Raji cell lines; experiment: Apoptosis by caspase 3/7 luminescent assay and western blot in BL cell lines; type: cell-based, human; details: 24 hours of drug exposure; 8, 16, 32 μM
Method: Namalwa cells are cultured in RPMI 1640, 10% fetal bovine serum, 1% PenStrep, and placed in a humidified atmosphere containing 5% CO2 at 37° C. 10,000-15,000 cells/well are seeded in 96 white wall well plates in 100 microliter medium/per well for 24 h. […] 100 microliters of Caspase-Glo 3/7 assay is added and luminescence is then read. Caki-1 cells are cultured in RPMI 1640, 10% fetal bovine serum, 1% PenStrep, and placed in a humidified atmosphere containing 5% CO2 at 37° C. 5,000 cells/well are seeded in 96 white wall well plates in 100 microliter medium/per well for 24 h. […] 100 microliters of Caspase-Glo 3/7 assay is added and luminescence is then read.

[4] = tested on: Namalwa cell line-derived xenografts; experiment: NIR-dye-cisplatin uptake in Namalwa xenografts vs organs (NIRF microscopy, IVIS); details: in vivo
Description: FIG. 28 depicts in accordance with various embodiments of the invention, B-cell lymphoma cell line (Namalwa) subcutaneus tumor xenografts in NCR-NU mice were extracted after the mice were sacrificed. NIR-dye-cisplatin uptake in tumors were imaged by a near-infrared fluorescence (NIRF) microscopy and IVIS Lumina XR Imaging System.

Namalwa tumors = experiment: Namalwa xenograft growth in mice; type: in vivo, mouse; details: equimolar doses i.p. 3 times a week
mouse kidneys [5] = experiment: Kidney histopathology, AKI-associated tubular injury score, Namalwa-bearing mice; details: i.p. 3 times a week for 4 weeks
Method: FIG. 27 depicts in accordance with various embodiments of the invention, formalin-fixed kidney sections are stained with hematoxylin and esosin and scored using a semiquantitative scale designed to assess AKI-associated tubular injury (tubular epithelial cell loss, necrosis, tubular epithelial simplification, intratubular debris, and casts).
as §3

[6] = tested on: ex vivo expanded CTCs from PC patients and LNCaP and C4-2B cells from mouse bone marrow, 3-D spheroids; experiment: Viability/apoptosis of PC CTCs and bone marrow-derived LNCaP and C4-2B grown as 3-D spheroids; type: cell-based, human
Method: Immortalized PC cell lines (PC3, LNCaP, C4-2, C4-2B, 22Rv1) and 3-D spheroid growth of mouse bone marrow-derived LNCaP and C4-2B and ex vivo expanded CTCs from patients were used. […] Induction of apoptosis was assessed by caspase 3/7 luminescent assay. Growth inhibitory effects were compared between 2-D and 3-D. Senescent luciferase-tagged LNCaP and C4-2B cells from mouse bone marrow regained growth potential when propagated in vitro as 3D spheroids. RPMI medium supplemented with 10% FBS and 1% penicillin/streptomycin was used to grow CTCs in vitro.

[7] = tested on: ovarian tumor cells OV90 and OVCA433; details: in vitro

`CC1(C)C(/C=C/C2=C(Cl)C(=C/C=C3/N(CCCCCC(=O)[O][Pt]([NH2])([NH2])([OH])([Cl])[Cl])c4ccccc4C3(C)C)/CCC2)=[N+](CCCCS(=O)(=O)[O-])c2ccccc21` [NIR dye-cisplatin, DZ-1-cisplatin] was tested, and the “induction of apoptosis (caspase 3/7, apoptosis related markers)” value (Caki-1 cells) was “induced apoptosis”, the “induction of apoptosis (caspase 3/7, apoptosis related markers)” value (Caki-1 cells; listed as dye-cisplatin) was “induces apoptosis” and the tumor growth inhibition (ACHN tumors) was “tumor growth inhibition and apoptotic nuclear lobulation/fragmentation”. For the same compound, the tumor growth inhibition (ACHN tumors; listed as dye-cisplatin) was “more effective than cisplatin”, the tumor growth inhibition (Renca tumors) was “tumor growth inhibition and apoptotic nuclear lobulation/fragmentation” and the tumor growth inhibition (Renca tumors; listed as dye-cisplatin) was “more effective than cisplatin”. For the same compound, the “kidney toxicity (histopathology)” value (mouse kidneys [1]) was “preserved the integrity and normal morphology of mouse kidneys”, the “antitumor effect (in words)” value [2] was “even more potent antitumor effect” and the “induction of apoptosis (caspase 3/7; caspase 9, caspase 3 and PARP)” value [3] was “induces apoptosis”. The “accumulation in cell line-derived xenografts relative to mouse kidneys and lungs” value [4] was 7-15 times, the tumor growth inhibition (Namalwa tumors) was “more effective than cisplatin” and the “kidney toxicity (histopathology)” value (mouse kidneys [5]) was “preserves the integrity and normal morphology of mouse kidneys”. The “sensitivity of cells grown as 3-D spheroids” value [6] was “extremely sensitive” and the “sensitivity of cell growth relative to unconjugated drug” value [7] was “more sensitive”.
